The NIST ThermoML archive (doi:10.1021/je301279x)
Numbers after ± are expanded uncertainties.

Key:
[1] = xn = mol fraction of the nth substance listed; conditions: for surface tension liquid-gas: Drop volume; for mass density: 800 kPa, Liquid, Vibrating tube method
[2] = Drop volume

NCCO [2-aminoethan-1-ol] + O
surface tension liquid-gas ([1]; 303.15 K, x1 = 0.0687): 66.7 ± 2.9 mN/m | surface tension liquid-gas ([1]; 303.15 K, x1 = 0.1122): 63.7 ± 2.8 mN/m | surface tension liquid-gas ([1]; 303.15 K, x1 = 0.1643): 61.5 ± 2.7 mN/m | surface tension liquid-gas ([1]; 303.15 K, x1 = 0.2277): 59.6 ± 2.7 mN/m | surface tension liquid-gas ([1]; 303.15 K, x1 = 0.3067): 57.4 ± 2.6 mN/m | surface tension liquid-gas ([1]; 303.15 K, x1 = 0.4076): 54.5 ± 2.6 mN/m | mass density ([1]; 303.15 K, x1 = 0.0687): 1003.6 ± 6.2 kg/m3 | mass density ([1]; 303.15 K, x1 = 0.1122): 1008.2 ± 6 kg/m3 | mass density ([1]; 303.15 K, x1 = 0.1643): 1013.3 ± 5.7 kg/m3 | mass density ([1]; 303.15 K, x1 = 0.2277): 1017.8 ± 5.4 kg/m3 | mass density ([1]; 303.15 K, x1 = 0.3067): 1021.3 ± 5.1 kg/m3 | mass density ([1]; 303.15 K, x1 = 0.4076): 1022.6 ± 4.9 kg/m3 | surface tension liquid-gas ([1]; 313.15 K, x1 = 0.0687): 65.2 ± 2.9 mN/m | surface tension liquid-gas ([1]; 313.15 K, x1 = 0.1122): 62.4 ± 2.8 mN/m | surface tension liquid-gas ([1]; 313.15 K, x1 = 0.1643): 59.8 ± 2.7 mN/m | surface tension liquid-gas ([1]; 313.15 K, x1 = 0.2277): 58.1 ± 2.7 mN/m | surface tension liquid-gas ([1]; 313.15 K, x1 = 0.3067): 56.1 ± 2.6 mN/m | surface tension liquid-gas ([1]; 313.15 K, x1 = 0.4076): 53.6 ± 2.6 mN/m | mass density ([1]; 313.15 K, x1 = 0.0687): 999.4 ± 6.2 kg/m3 | mass density ([1]; 313.15 K, x1 = 0.1122): 1003.3 ± 5.9 kg/m3 | mass density ([1]; 313.15 K, x1 = 0.1643): 1007.8 ± 5.7 kg/m3 | mass density ([1]; 313.15 K, x1 = 0.2277): 1011.8 ± 5.4 kg/m3 | mass density ([1]; 313.15 K, x1 = 0.3067): 1014.6 ± 5.1 kg/m3 | mass density ([1]; 313.15 K, x1 = 0.4076): 1015.5 ± 4.8 kg/m3 | surface tension liquid-gas ([1]; 323.15 K, x1 = 0.0687): 63.6 ± 2.8 mN/m | surface tension liquid-gas ([1]; 323.15 K, x1 = 0.1122): 61 ± 2.8 mN/m | surface tension liquid-gas ([1]; 323.15 K, x1 = 0.1643): 58.4 ± 2.7 mN/m | surface tension liquid-gas ([1]; 323.15 K, x1 = 0.2277): 56.5 ± 2.7 mN/m | surface tension liquid-gas ([1]; 323.15 K, x1 = 0.3067): 55 ± 2.6 mN/m | surface tension liquid-gas ([1]; 323.15 K, x1 = 0.4076): 52.5 ± 2.5 mN/m | mass density ([1]; 323.15 K, x1 = 0.0687): 994.6 ± 6.1 kg/m3 | mass density ([1]; 323.15 K, x1 = 0.1122): 998.1 ± 5.9 kg/m3 | mass density ([1]; 323.15 K, x1 = 0.1643): 1002.1 ± 5.7 kg/m3 | mass density ([1]; 323.15 K, x1 = 0.2277): 1005.4 ± 5.4 kg/m3 | mass density ([1]; 323.15 K, x1 = 0.3067): 1007.8 ± 5.1 kg/m3 | mass density ([1]; 323.15 K, x1 = 0.4076): 1008.2 ± 4.8 kg/m3 | surface tension liquid-gas ([1]; 333.15 K, x1 = 0.0687): 61.6 ± 2.8 mN/m | surface tension liquid-gas ([1]; 333.15 K, x1 = 0.1122): 59.5 ± 2.8 mN/m | surface tension liquid-gas ([1]; 333.15 K, x1 = 0.1643): 57 ± 2.7 mN/m | surface tension liquid-gas ([1]; 333.15 K, x1 = 0.2277): 55.1 ± 2.6 mN/m | surface tension liquid-gas ([1]; 333.15 K, x1 = 0.3067): 53.6 ± 2.6 mN/m | surface tension liquid-gas ([1]; 333.15 K, x1 = 0.4076): 51.2 ± 2.5 mN/m | mass density ([1]; 333.15 K, x1 = 0.0687): 989.1 ± 6.1 kg/m3 | mass density ([1]; 333.15 K, x1 = 0.1122): 992.3 ± 5.9 kg/m3 | mass density ([1]; 333.15 K, x1 = 0.1643): 995.7 ± 5.6 kg/m3 | mass density ([1]; 333.15 K, x1 = 0.2277): 998.7 ± 5.4 kg/m3 | mass density ([1]; 333.15 K, x1 = 0.3067): 1000.6 ± 5.1 kg/m3 | mass density ([1]; 333.15 K, x1 = 0.4076): 1000.6 ± 4.8 kg/m3

NCCO [2-aminoethan-1-ol]
surface tension liquid-gas ([2]; 293.15 K): 48.48 ± 0.84 mN/m | surface tension liquid-gas ([2]; 303.15 K): 47.64 ± 0.83 mN/m | surface tension liquid-gas ([2]; 313.15 K): 46.88 ± 0.83 mN/m

O [water]
surface tension liquid-gas ([2]; 293.15 K): 72.56 ± 2 mN/m | surface tension liquid-gas ([2]; 303.15 K): 70.9 ± 2 mN/m | surface tension liquid-gas ([2]; 313.15 K): 69.81 ± 1.9 mN/m | surface tension liquid-gas ([2]; 323.15 K): 67.72 ± 1.9 mN/m
